Measurements: article PMC10223822, “Identification of the Hepatic Metabolites of Flumazenil and their Kinetic Application in Neuroimaging” (Pharmaceuticals, 2023)

Experiments:
[1] = Flumazenil metabolization in rat liver microsomes (LC-DAD/tandem MS); type: in vitro ADME
Description: (§1) The quantification of flumazenil metabolism by hepatic enzymes was performed using HPLC (Agilent 1100 series, Palo Alto, CA, USA), which is comprised of an online degasser, a binary pump, an auto sampler, a thermostat column oven (maintained at 25 °C), and a diode array detector (DAD, 250 nm). Data were acquired and processed using the Agilent ChemStation software (ed. 10.02). Separation was achieved using a C18 column with a guard column and an ammonium acetate buffer–acetonitrile gradient elution. The mobile phase consisted of eluents A (5 mM ammonium acetate aqueous buffer with 1% ACN, pH 7.0) and B (ACN only) at a flow rate of 0.6 mL min^−1. These were mixed to separate the metabolites and flumazenil from the sample matrices, according to the gradient program shown in Table 1. The overall LC time for flumazenil biotransformation was 15 min. An analyte solution of 5 µL was injected using an auto-sampler thermostat at 4 °C.
Mass spectrometric analysis of flumazenil in ACN was initially conducted on a 4000 QTrap LC-MS/MS system using API Analyst software 1.4.1 (AB Sciex, Concord, ON, Canada) to obtain the appropriate MS parameters and m/z for flumazenil fragments. Samples were introduced into the spectrometer, either by the HPLC system (Agilent 1100) or by a syringe pump, at a flow rate of 10 µL min^−1 (Harvard Apparatus Inc., Holliston, MA, USA). Chromatographic separation was conducted as described in the HPLC conditions section. The analytes were ionized by a turbo spray ion source (electrospray ionization, [ESI]) in the positive-ion mode at 5000 V and 350 °C. Mass spectra were recorded within a range of 100–1000 amu with unit resolutions of Q1 and Q3. The LC-tandem MS determination of flumazenil concentration was conducted in the multiple reaction monitoring positive-ion mode with transition ion pairs 304 → 258 and 304 → 276. […]
Incubation solutions were prepared according to the manufacturer’s instructions. […] The supernatants were filtered through a 0.22 µm PVDF disk filter and analyzed using LC-DAD and tandem MS. […]

[2] = Flumazenil biotransformation in rat liver homogenate (HPLC-DAD/tandem MS); type: in vitro ADME
Description: as §1
Mass spectrometric analysis of flumazenil in ACN was initially conducted on a 4000 QTrap LC-MS/MS system using API Analyst software 1.4.1 (AB Sciex, Concord, ON, Canada) to obtain the appropriate MS parameters and m/z for flumazenil fragments. Samples were introduced into the spectrometer, either by the HPLC system (Agilent 1100) or by a syringe pump, at a flow rate of 10 µL min^−1 (Harvard Apparatus Inc., Holliston, MA, USA). Chromatographic separation was conducted as described in the HPLC conditions section. The analytes were ionized by a turbo spray ion source (electrospray ionization, [ESI]) in the positive-ion mode at 5000 V and 350 °C. Mass spectra were recorded within a range of 100–1000 amu with unit resolutions of Q1 and Q3. The LC-tandem MS determination of flumazenil concentration was conducted in the multiple reaction monitoring positive-ion mode with transition ion pairs 304 → 258 and 304 → 276. Vaporized liquid nitrogen gas was used as the nebulizer, curtain, and collision gas in all 4000 QTrap LC–MS/MS studies.
Normal rat livers were obtained from healthy male SD rats weighing 400–450 g. […]

[3] = Radiochemical stability of [18F]flumazenil in 30% ethanol after end of synthesis; type: physicochemical; conditions: amber glass vial, room temperature, 8 h after end of synthesis (EOS)
[4] = In vitro serum stability of [18F]flumazenil (radio-TLC); conditions: for Radiochemical Purity (RCP, %) in serum: rat serum, 37 °C
Description: Serum preparation: healthy SD rats were deeply anesthetized with isoflurane gas (3% isoflurane in 50% oxygen, 1 mL/min). One milliliter of whole blood from healthy SD rats was withdrawn through the tail vein at room temperature and centrifuged at 3000 rpm for 10 min to obtain the prepared serum for stability testing.

CN1Cc2c(C(=O)O)ncn2-c2ccc(F)cc2C1=O [Metabolite M2]
peak area of M2 increased by ([1]; up to 120 min incubation): 72%

CCOC(=O)c1ncn2c1CN(C)C(=O)c1cc(F)ccc1-2 [flumazenil, ethyl 8-fluoro-5-methyl-6-oxo-5,6-dihydro-4H-benzo[f]imidazo [1,5-a] [1, 4]diazepine-3-carboxylate]
flumazenil detected, of the initial amount ([1]; 120 min incubation): approximately 22%
parent drug biotransformed (parent peak area) ([2]; rat liver homogenate, 37 °C, 4 h (240 min)): approximately 65%

CCOC(=O)c1ncn2c1CN(C)C(=O)c1cc([18F])ccc1-2 [[^18F]flumazenil]
radiochemical purity in 30% ethanol [3]: > 90%
biotransformed metabolites in metabolism analysis ([2]; after 30 min, as worded in conclusions): about 50%
Radiochemical Purity (RCP, %) in serum ([4]; 0 min): 95.76%
Radiochemical Purity (RCP, %) in serum ([4]; 5 min): 93.28%
Radiochemical Purity (RCP, %) in serum ([4]; 10 min): 91.07%
Radiochemical Purity (RCP, %) in serum ([4]; 30 min): 87.46%
Radiochemical Purity (RCP, %) in serum ([4]; 60 min): 85.68%
Radiochemical Purity (RCP, %) in serum ([4]; 120 min): 79.95%
Radiochemical Purity (RCP, %) in serum ([4]; 240 min): 72.13%
intact [18F]flumazenil in serum ([4]; up to 1 h of incubation, regular conditions): > 85%

COC(=O)c1ncn2c1CN(C)C(=O)c1cc(F)ccc1-2 [Metabolite M1]
M1 formation ([2]; flumazenil incubated in rat liver homogenate 0–250 min): relatively low amount

CN1Cc2c(C(=O)OCCO)ncn2-c2ccc(F)cc2C1=O [Metabolite M3]
change of peak area of M3 ([1]; up to 120 min incubation): No significant increase
